In patent US20240216357A1 (SICHUAN HUIYU PHARMACEUTICAL CO., LTD., priority 2021, published 2024):
Counter-ions that a name gives are not always drawn.

Target: LSD1 (Homo sapiens (Human), UniProt O60341)
Assay: LSD1 enzyme activity detection (HTRF)
Type: biochemical
Conditions: HTRF, H3K4me1 substrate; read-out: Inhibition of enzymatic activity of LSD1 IC50

Row | Structure (SMILES) | IC50 [nM]
1 | CS(=O)(=O)N1CCN(c2cc(CN[C@@H]3C[C@H]3c3ccc(F)cc3)nc(-c3ccc(N4CCOCC4)cc3)n2)CC1 [Example 265, (1R,2S)-2-(4-fluorophenyl)-N-((6-(4-(methylsulfonyl)piperazin-1-yl)-2-(4-morpholinophenyl)pyrimidin-4-yl)methyl) cyclopropane-1-amine] | 224
2 | Cc1noc2cc(-c3sc(C(=O)N4C5CCC4CC(N)C5)cc3-c3ccccn3)c(F)cc12 (centres unmarked) [Example 210, (3-amino-8-azabicyclo [3.2.1]octan-8-yl)(5-(5-fluoro-3-methylbenzo[d]isoxazol-6-yl)-4-(pyridin-2-yl)thiophen-2-yl)methanone] | 5520
3 | Cc1noc2cc(-c3sc(C(=O)N4C5CCC4CC(N)C5)cc3-c3ccc(S(C)(=O)=O)cc3)c(F)cc12 (centres unmarked) [Example 213, (3-amino-8-azabicyclo [3.2.1]octan-8-yl) (5-(5-fluoro-3-methylbenzo [d]isoxazol-6-yl)-4-(4-(methyldimethylsulfoxide-16-sulfonyl)phenyl)thio-phen-2-yl)methanone] | 36.7
4 | Cc1noc2cc(-c3sc(C(=O)N4C5CCC4CC(N)C5)cc3-c3ccc(S(N)(=O)=O)cc3)c(F)cc12 (centres unmarked) [Example 212, 4-(5-(3-amino-8-azabicyclo [3.2.1]octane-8-carbonyl)-2-(5-fluoro-3-methyl-benzo[d]isoxazol-6-yl)thiophen-3-yl)benzene-sulfonamide] | 207
5 | COc1ccc(-c2c(-c3cnc(C#N)nc3)nc(N3C4CCC3CC(N)C4)n3ccnc23)cc1F (centres unmarked) [Example 180, 5-(5-(3-amino-8-azabicyclo [3.2.1]octane-8-yl)-8-(3-fluoro-4-methoxyphenyl)imidazolo[1,2-c]pyrimidin-7-yl) pyrimidin-2-carbonitrile] | 77.1
6 | Cc1ccc(-c2c(-c3ccc(C#N)cc3)cc3c(N4CCC(N)CC4)ccnn23)cc1 [Example 198, hydrochloride] | 174
7 | Cc1noc2cc(-c3sc(C(=O)N4C5CCC4CC(N)C5)cc3-c3ncccn3)c(F)cc12 (centres unmarked) [Example 211] | 206
8 | Cc1noc2cc(-c3sc(C(=O)N4C5CCC4CC(N)C5)cc3-c3ccccc3)c(F)cc12 (centres unmarked) [Example 207, (3-amino-8-azabicyclo [3.2.1]octan-8-yl)(5-(5-fluoro-3-methylbenzo[d]isoxazol-6-yl)-4-phenyithio-phene-2-yl)methanone hydrochloride] | 1250
9 | Cc1noc2cc(-c3sc(C(=O)N4C5CCC4CC(N)C5)cc3-c3cncnc3)c(F)cc12 (centres unmarked) [Example 206, (3-amino-8-azabicyclo [3.2.1]octan-8-yl)(5-(5-fluoro-3-methylbenzo[d]isoxazol-6-yl)-4-(pyrimidine-5-yl)thiophen-2-yl) methanone hydrochloride] | 432
10 | COc1ccc(-c2c(C3CCC(C#N)CC3)nc(N3C4CCC3CC(N)C4)n3ccnc23)cc1F (centres unmarked) [Example 179, 4-(5-(3-amino-8-azadicyclo [3.2.1]octane-8-yl)-8-(3-fluoro-4-methoxyphenyl)imidazolo[1,2-c]pyrimidin-7-yl) cyclohexane-1-carbonitrile hydrochloride] | 938
11 | COc1ccc(-c2cc(N3CCC(N)CC3)nc(-c3ccc(C#N)c(F)c3)c2OC)cc1F [Example 102, 4-(6-(4-aminopiperidin-1-yl)-4-(3-fluoro-4-methoxyphenyl)-3-methoxypyridin-2-yl)-2-fluoroben zonitrile] | 712
12 | Cc1ccc(-c2c(-c3ccc(C#N)cc3)cc3c(N4CCCCC4)nccn23)cc1 [Example 191, 4-(1-(piperidin-1-yl)-6-(p-tolyl)pyrrolo[1,2-a]pyrazin-7-yl)benzonitrile] | 104
13 | Cc1noc2cc(-c3c(OCc4ccccc4)cc(N4C5CCC4CC(N)C5)nc3-c3ccc(C#N)c(F)c3)c(F)cc12 (centres unmarked) [Example 88, 4-(6-(3-amino-8-azabicyclo [3.2.1]octane-8-yl)-4-(benzyloxy)-3-(5-fluoro-3-methylbenzo[d]isoxazol-6-yl)pyridin-2-yl)-2-fluorobenzonitrile] | 566
14 | COc1ccc(-c2c(-c3ccc(C#N)c(C)c3)nc(N3C4CCC3CC(N)C4)n3ccnc23)cc1F (centres unmarked) [Example 184, 4-(5-(3-amino-8-azabicyclo[3.2.1]octane-8-yl)-8-(3-fluoro-4-methoxyphenyl)imidazolo[1,2-c]pyrimidin-7-yl)-2-methylbenzonitrile hydrochloride] | 110
15 | COc1ccc(-c2cnc(N3CC4CCC(C3)C4N)c(C#N)c2-c2ccc(C#N)c(F)c2)cc1O (centres unmarked) [Example 74, 2-(8-amino-3-azabicyclo[3.2.1]octane-3-yl)-4-(4-cyano-3-fluorophenyl)-5-(3-hydroxy-4-methoxyphenyl) nicotinonitrile] | 166
16 | COc1ccc(-c2c(O)cc(NC3CCNCC3)nc2-c2ccc(C#N)c(F)c2)cc1F [Example 40, 2-fluoro-4-(3-(3-fluoro-4-methoxyphenyl)-4-hydroxy-6-(piperidin-4-ylamino)pyridin-2-yl)benzonitrile] | 280
17 | COc1cc(-c2c(-c3ccc(C#N)c(F)c3)nc(N3CCC(N)CC3)n3ccnc23)ccc1O [Example 141, 4-(5-(4-aminopiperidin-1-yl)-8-(4-hydroxy-3-methoxyphenyl)imidazolo[1,2-c]pyrimidin-7-yl)-2-fluorobenzonitrile formate] | 224
18 | Cc1noc2cc(-c3sc(C(=O)N4C5CCC4CC(N)C5)cc3-c3cccnc3)c(F)cc12 (centres unmarked) [Example 208, (3-amino-8-azabicyclo [3.2.1]octan-8-yl) (5-(5-fluoro-3-methylbenzo [d]isoxazol-6-yl)-4-(pyridin-3-yl)thiophen-2-yl) methanone hydrochloride] | 641
19 | COc1ccc(-c2cnc(N3C4CCCC3CC(N)C4)c(C#N)c2-c2ccc(C#N)c(F)c2)cc1O (centres unmarked) [Example 75, 2-(3-amino-9-azabicyclo [3.3.1]nonan-9-yl)-4-(4-cyano-3-fluorophenyl)-5-(3-hydroxy-4-methoxyphenyl) nicotinonitrile] | 500
20 | Cc1ccc(-c2c(-c3ccc(C#N)cc3)cc3c(N4CCN(C)CC4)nncn23)cc1 [Example 195, 4-(1-(4-methylpiperazin-1-yl)-6-(p-tolyl)pyrrolo[1,2-d][1,2,4]triazine-7-yl)benzonitrile] | 208
21 | COc1ccc(-c2cnc(N3C4CCC3CC(N)C4)c(C#N)c2-c2ccc(C#N)c(F)c2)cc1O (centres unmarked) [Example 81, 2-(3-amino-8-azabicyclo [3.2.1]octane-8-yl)-4-(4-cyano-3-fluorophenyl)-5-(3-hydroxy-4-methoxyphenyl) nicotinonitrile] | 671
22 | Cc1noc2cc(-c3sc(C(=O)N4C5CCC4CC(N)C5)cc3-c3ccc4cn[nH]c4c3)c(F)cc12 (centres unmarked) [Example 205, (3-amino-8-azabicyclo [3.2.1]octane-8-yl) (5-(5-fluoro-3-methylbenzo[d]isoxazol-6-yl)-4-(1H-indazol-6-yl)thiophen-2-yl)methanone hydrochloride] | 902
23 | N#Cc1ccc(-c2nc(N3CCC(N)CC3)cc(O)c2-c2ccc3c(c2)OC(F)(F)O3)cc1F [Example 30, 4-(6-(4-aminopiperidin-1-yl)-3-(2,2-difluorobenzo[d][1,3]dioxol-5-yl)-4-hydroxypyridin-2-yl)-2-fluorobenzonitrile hydrochloride] | 213
24 | COc1ccc(-c2c(O)cc(N3CCC(N)CC3)nc2-c2ccc(C#N)c(F)c2)cc1OC [Example 33, 4-(6-(4-aminopiperidin-1-yl)-3-(3,4-dimethoxyphenyl)-4-hydroxypyridin-2-yl)-2-fluorobenzonitrile hydrochloride] | 210
25 | CC(C)(O)Cn1ncc2cc(F)c(-c3c(O)cc(N4CCC(N)CC4)nc3-c3ccc(C#N)c(F)c3)cc21 [Example 28, hydrochloride] | 441
26 | COc1ccc(-c2c(-c3ccc(C#N)c(C#N)c3)nc(N3C4CCC3CC(N)C4)n3ccnc23)cc1F (centres unmarked) [Example 181, 4-(5-(3-amino-8-azabicyclo [3.2.1]octane-8-yl)-8-(3-fluoro-4-methoxyphenyl)imidazolo[1,2-c]pyrimidin-7-yl) phthalonitrile hydrochloride] | 193

Same assay, conditions: read-out: Inhibition of enzymatic activity of LSD1 IC50

Row | Structure (SMILES) | IC50 [nM]
27 | N#Cc1ccc(-c2nc(N3CCC(N)CC3)cc(O)c2-c2ccc3[nH]nc(Cl)c3c2)cc1F [Example 20, hydrochloride] | 166

Test system: NCI-H1417 cells
Assay: In vitro cell proliferation detection (CellTiter-Glo, 7 days)
Type: cell-based
Conditions: Homo sapiens, 168 h; NCI-H1417 cells, 7 days, CellTiter-Glo; read-out: NCI-H1417 proliferation inhibition IC50

Row | Structure (SMILES) | IC50 [nM]
28 | COc1ccc(-c2cc(C#N)c(N3CCC(N)CC3)nc2-c2ccc(C#N)c(F)c2)cc1O [Example 282, 2-(4-aminopiperidin-1-yl)-6-(4-cyano-3-fluorophenyl)-5-(3-hydroxy-4-methoxyphenyl)nicotinon itrile hydrochloride] | 136
29 | COc1ccc(-c2nc(N3CCC(N)CC3)cc(C#N)c2-c2ccc(C#N)c(F)c2)cc1O [Example 274, 6-(4-aminopiperidin-1-yl)-3-(4-cyano-3-fluorophenyl)-2-(3-hydroxy-4-methoxyphenyl)pyridin-4-carbonitrile] | > 1000
30 | COc1ccc(Nc2c(O)cc(N3CCC(N)CC3)nc2-c2ccc(C#N)c(F)c2)cc1F [Example 64, 4-(6-(4-aminopiperidin-1-yl)-3-(3-fluoro-4-methoxyphenyl)amino)-4-hydroxypyridin-2-yl)-2-flu orobenzonitrile hydrochloride] | 344
31 | COc1ccc(-c2c(-c3ccc(C#N)c(F)c3)nc(N3CCC(N)CC3)c3c2cnn3C)cc1O [Example 285, 4-(7-(4-aminopiperidin-1-yl)-4-(3-hydroxy-4-methoxyphenyl)-1-methyl-1H-pyrazolo[3,4-c]pyridin-5-yl)-2-fluorobenzonitrile] | 2.16

Same assay, conditions: NCI-H1417 cells, 7 days, CellTiter-Glo; read-out: NCI-H1417 proliferation inhibition IC50

Row | Structure (SMILES) | IC50 [nM]
32 | CS(=O)(=O)N1CCN(c2cc(CCCN[C@@H]3C[C@H]3c3ccc(F)cc3)nn(-c3ccc(C#N)cc3)c2=O)CC1 [Example 260, 4-(3-(3-((1R,2S)-2-(4-fluorophenyl)cyclopropyl)amino)-5-(4-(methylsulfonyl)piperazin-1-yl)-6-oxypyridazine-1 (6H)-yl)benzonitrile formate] | 46.1
